# Experimental data: patent US9789101B2, “Methods and compositions for treating microbial infection using pyrroloquinone” (HELPERBY THERAPEUTICS LIMITED, priority 2010, dated 2017)
# Structures can show the parent of a compound that is named as a salt.
# Assays:
# [1] = test system: log phase Staphylococcus aureus; assay: Chequerboard analysis of HT00800059 with HT230 or HT281 against log phase Staphylococcus aureus; type: cell-based, Staphylococcus aureus (Oxford)
# Description: Staphylococcus aureus (Oxford); Gram positive; Reference strain.
# Log phase growth of methicilin sensitive Staphylococcus aureus (MSSA) was carried out as follows: • Bacteria were grown in 10 ml of nutrient broth (No. 2, (Oxoid)) overnight at 37° C. with continuous shaking at 120 rpm. The overnight cultures were diluted 1000× with iso-sensitest broth. The cultures were incubated at 37° C. with shaking for 1-2 hours to reach log CFU 6. Viability of the bacteria was estimated by colony forming unit (CFU) counts. From serial 10-fold dilutions of the experimental cultures, 100 μl samples were added to triplicate plates of nutrient agar plates (Oxoid) or blood agar plates (Oxoid). CFUs were counted after incubation of the plates at 37° C. for 24 hours.
# Bacterial cultures: 10 μl of overnight cultures was added to 10 ml of fresh iso-sensitest broth to make the inoculation to 10^6 CFU/ml. 290 μl of the cell suspension was added to each well of the 96 well plate, which was incubated at 37° C. for 24 hours. 300 μl of iso-sensitest broth without bacterial cells were added to wells of the plate as a no bacterial control.
# MIC determination: The optical density of the bacterial cells was read at 405 nm using a plate reader (Bio TEK). The MIC concentration was determined as the lowest concentration of drug which inhibits the bacterial growth.
# HT230 was dissolved in DMSO to the stock concentration of 10 mg/ml.
# HT281 was dissolved in DMSO to the stock concentration of 10 mg/ml.
# HT00800059 was dissolved in H2O to the stock solution 30.07 mg/ml.
# HT230 or HT281 (10 mg/ml) was firstly diluted to 0.96 mg/ml, then a serial of 2 fold dilution was carried out.
# This was followed by the addition of 280 μl of log phase culture at 10^6 CFU/ml to make the final concentrations of each drug as shown.
# In the above table, values in bold text are for HT00800059. Values in plain text are for HT230 or HT281. The numbers shown in each well are μg/ml.
# Incubation of the compounds with the bacterial suspension was carried out for 24 hours. The kill effects of the drug combination were measured by optical density reading at 405 nm with a plate reader (Bio TEK).
# The fractional inhibitory concentration (FIC) index was carried out as follows: (MIC of drug A, tested in combination)/(MIC of drug A, tested alone)+(MIC of drug B, tested in combination)/(MIC of drug B, tested alone). The interaction was defined as synergistic if the FIC index was <1, additive if the FIC index was =1 and antagonistic if the FIC index was >1.
# [2] = test system: log phase (i.e. multiplying) bacteria; settings: J. Am. Pharm. Assoc. 1956; cited from earlier work
structure (smiles),measurement,setting,value
"CCCCOc1ccc(C(=O)CCN2CCCCC2)cc1 [HT00800059, dyclonine (1-(4-Butoxyphenyl)-3-(1-piperidinyl)-1-propanone) hydrochloride]",MIC after combination,[1]; HT230/HT00800059 chequerboard,64 µg/mL
same,MIC before combination,[1]; HT230/HT00800059 chequerboard,512 µg/mL
same,MIC after combination,[1]; HT281/HT00800059 chequerboard,128 µg/mL
same,MIC before combination,[1]; HT281/HT00800059 chequerboard,512 µg/mL
same,MIC,"[1]; Staphylococcus aureus, read-out: alone MIC",512 µg/mL
same,HT00800059 MIC in combination,[1]; with HT230 at 2 μg/ml,64 µg/mL
same,HT00800059 MIC in combination,[1]; with HT281 at 4 μg/ml,128 µg/mL
same,activity in vitro against a variety of log phase bacteria,[2],activity
